The source of these data is ChEMBL document CHEMBL1201862, “PubChem BioAssay data set” (2004).

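96-well plates; 48 h exposure; 5 concentrations. Endpoints by linear interpolation between flanking doses. Not reached: highest tested concentration assigned. Here, GI50 denotes the concentration required for 50% inhibition of growth.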 Activity calls are given as the source filed them. No stated cut-off is given here; in the data, active = GI50 up to about 1.1 µM and inactive = higher.

Test systems include NCI-H460; CAKI-1; ACHN; OVCAR-5; SF-268; EKVX; LOX IMVI; DU-145; 786-0; MCF7; NCI-H226; COLO 205; CCRF-CEM; BT-549; NCI-H23; UACC-257; T47D; SK-OV-3; KM12.
Assay in all cases: growth of human tumour cells (NCI), 48 h

In the case of `CCCCNc1nc(O)c2[nH]cnc2n1`, the GI50 with NCI-H460, with CAKI-1, with ACHN, with OVCAR-5, with SF-268 and in the assay on EKVX was > 100 µM (inactive) each time. Besides, the GI50 with LOX IMVI, with DU-145, in the assay with 786-0, in the assay on MCF7, in the assay on NCI-H226 and in the assay on COLO 205 was > 100 µM (inactive) in each case. In addition, the GI50 with CCRF-CEM, with BT-549, in the assay with NCI-H23, with UACC-257, with T47D and in the assay with SK-OV-3 was > 100 µM (inactive) each time. The GI50 with KM12 was > 100 µM (inactive).

For the molecule `CCOC(=O)c1c(SCCN(CC)CC)n(-c2ccccc2)c(=S)n(-c2ccccc2)c1=O`, the GI50 with NCI-H460 is 6.93 µM (inactive); with CAKI-1, 2.16 µM (inactive); in the assay with ACHN, 1.73 µM (inactive); in the assay with OVCAR-5 it was 30.3 µM (inactive); with SF-268, 4.56 µM (inactive); in the assay with EKVX, 9.59 µM (inactive). Besides, the GI50 in the assay with LOX IMVI was 1.95 µM (inactive); with DU-145, 1.68 µM (inactive); in the assay on 786-0 it was 1.77 µM (inactive); in the assay with MCF7, 1.27 µM (inactive); with NCI-H226, 21.5 µM (inactive); in the assay on COLO 205, 2.5 µM (inactive). The GI50 in the assay with CCRF-CEM was 1.26 µM (inactive); with BT-549, 7.13 µM (inactive); in the assay on NCI-H23, 15.9 µM (inactive); in the assay with UACC-257 it was 2.28 µM (inactive); in the assay on T47D, 2.55 µM (inactive); in the assay on SK-OV-3, 19.3 µM (inactive). Also, the GI50 with KM12 was 14.3 µM (inactive).

`COc1cc(OC)c2c(=O)c(O)c(-c3ccc(OC)c(OC)c3)oc2c1`: the GI50 in the assay with NCI-H460 is 3.94 µM (inactive); in the assay with CAKI-1 it was 4.1 µM (inactive); in the assay with ACHN it was 4.36 µM (inactive); in the assay on OVCAR-5, 10.3 µM (inactive); in the assay with SF-268, 4.11 µM (inactive); in the assay with EKVX, 7.14 µM (inactive). Further, the GI50 in the assay on LOX IMVI is 3.78 µM (inactive); in the assay on DU-145, 8.28 µM (inactive); in the assay on 786-0 it was 6.87 µM (inactive); in the assay on MCF7, 4.02 µM (inactive); in the assay on NCI-H226, 9.4 µM (inactive); with COLO 205 it was 4.84 µM (inactive). The GI50 with CCRF-CEM is 3.1 µM (inactive); in the assay with BT-549 it was 0.755 µM (active); in the assay with NCI-H23 it was 11.1 µM (inactive); in the assay on UACC-257 it was 5.25 µM (inactive); in the assay with T47D it was 4.97 µM (inactive); with SK-OV-3, 13.6 µM (inactive). Also, the GI50 in the assay with KM12 is 7.29 µM (inactive).

On to `C=C(C)[C@@H]1CC[C@]2(C(=O)O)CC[C@]3(C)[C@H](CC[C@@H]4[C@@]5(C)CC(=O)C(C)(C)[C@@H]5CC[C@]43C)[C@@H]12`, for which the GI50 in the assay with NCI-H460 was 4.95 µM (inactive); with CAKI-1 it was 12.2 µM (inactive); in the assay with ACHN, 7.53 µM (inactive); with OVCAR-5, 11 µM (inactive); in the assay with SF-268, 14.8 µM (inactive); in the assay with EKVX, 9.35 µM (inactive). In addition, the GI50 is 8.36 µM (inactive) with LOX IMVI; 12.5 µM (inactive) in the assay on DU-145; 7 µM (inactive) in the assay with 786-0; 6.64 µM (inactive) in the assay with MCF7; 9.38 µM (inactive) in the assay with NCI-H226; 4.68 µM (inactive) in the assay on COLO 205. Moreover, the GI50 in the assay with CCRF-CEM is 0.574 µM (active); in the assay on BT-549, 10.3 µM (inactive); in the assay with NCI-H23, 10.9 µM (inactive); in the assay on UACC-257, 7.55 µM (inactive); in the assay with T47D, 14.9 µM (inactive); in the assay on SK-OV-3 it was 10 µM (inactive). For the same molecule, in the assay with KM12, the GI50 was 8.77 µM (inactive).

Take `Oc1ccc(-c2nc(-c3cccnc3)c(-c3ccc(Cl)cc3)[nH]2)cc1`: the GI50 was 11.1 µM (inactive) in the assay on NCI-H460; 17.9 µM (inactive) in the assay on CAKI-1; 14.5 µM (inactive) in the assay on ACHN; 19.3 µM (inactive) in the assay with OVCAR-5; 14.6 µM (inactive) in the assay with SF-268; 13.2 µM (inactive) in the assay on EKVX. Besides, the GI50 in the assay on LOX IMVI was 6.89 µM (inactive); in the assay with DU-145, 14.3 µM (inactive); with 786-0, 13.6 µM (inactive); in the assay with MCF7, 11.3 µM (inactive); in the assay with NCI-H226, 18.8 µM (inactive); in the assay with COLO 205, 10.3 µM (inactive). Also, the GI50 is 1.79 µM (inactive) in the assay on CCRF-CEM; 15.3 µM (inactive) with BT-549; 13 µM (inactive) in the assay on NCI-H23; 16.1 µM (inactive) with UACC-257; 11.7 µM (inactive) with T47D; 13.6 µM (inactive) in the assay on SK-OV-3. In the assay on KM12, the GI50 is 11.9 µM (inactive).

As for `O=C(O)c1cccc(OCCOc2cccc(C(=O)O)c2[N+](=O)[O-])c1[N+](=O)[O-]`, the GI50 in the assay with NCI-H460, in the assay on CAKI-1, with ACHN, in the assay on OVCAR-5, in the assay with SF-268 and in the assay on EKVX was > 100 µM (inactive) each time. Further, the GI50 in the assay on LOX IMVI, in the assay with DU-145, with 786-0, with MCF7, in the assay on NCI-H226 and in the assay with COLO 205 was > 100 µM (inactive) each time. The GI50 in the assay with CCRF-CEM, with BT-549, in the assay on NCI-H23, in the assay on UACC-257, with T47D and in the assay with SK-OV-3 was > 100 µM (inactive) in each case. Moreover, in the assay on KM12, the GI50 is > 100 µM (inactive).

Turning to `O=C(/C=C/c1ccc([N+](=O)[O-])cc1)N1CCN(CCOC(c2ccc(F)cc2)c2ccc(F)cc2)CC1`, the GI50 was 11.3 µM (inactive) in the assay with NCI-H460; 18.2 µM (inactive) in the assay on CAKI-1; 4.34 µM (inactive) in the assay with ACHN; > 100 µM (inactive) in the assay on OVCAR-5; > 100 µM (inactive) with SF-268; > 100 µM (inactive) in the assay with EKVX. Moreover, the GI50 with LOX IMVI is 24.6 µM (inactive); in the assay on DU-145 it was 18.4 µM (inactive); with 786-0 it was 67.6 µM (inactive); with MCF7 it was 5.19 µM (inactive); with NCI-H226 it was > 100 µM (inactive); in the assay with COLO 205, 11.5 µM (inactive). The GI50 was 7.01 µM (inactive) in the assay on CCRF-CEM; > 100 µM (inactive) in the assay on BT-549; > 100 µM (inactive) in the assay with NCI-H23; > 100 µM (inactive) with UACC-257; 4.74 µM (inactive) with T47D; > 100 µM (inactive) in the assay on SK-OV-3. Moreover, in the assay with KM12, the GI50 was 7.36 µM (inactive).

For the molecule `COc1ccc2c(c1)/C(=C(\C(Cl)=C(\Cl)N1CCCCC1)[N+](=O)[O-])N2`, the GI50 in the assay on NCI-H460 is > 100 µM (inactive); in the assay with CAKI-1, > 100 µM (inactive); in the assay with ACHN it was > 100 µM (inactive); in the assay on OVCAR-5 it was > 100 µM (inactive); in the assay with SF-268 it was > 100 µM (inactive); in the assay with EKVX, 48.9 µM (inactive). Besides, the GI50 is > 100 µM (inactive) with LOX IMVI; > 100 µM (inactive) with DU-145; > 100 µM (inactive) in the assay with 786-0; > 100 µM (inactive) in the assay on MCF7; 29.6 µM (inactive) in the assay with NCI-H226; 59.2 µM (inactive) in the assay with COLO 205. Further, the GI50 was 40.7 µM (inactive) with CCRF-CEM; 98.6 µM (inactive) in the assay with BT-549; > 100 µM (inactive) with NCI-H23; > 100 µM (inactive) in the assay on UACC-257; > 100 µM (inactive) in the assay on T47D; > 100 µM (inactive) in the assay with SK-OV-3. The GI50 in the assay on KM12 was > 100 µM (inactive).

Regarding `Cc1c(C)c(S(=O)(=O)N(CCCN)OCCCN)c(C)c2c1OC(C)(C)CC2`, the GI50 in the assay with NCI-H460 was 15.8 µM (inactive); in the assay on CAKI-1 it was 16.5 µM (inactive); in the assay on ACHN it was 16.1 µM (inactive); with OVCAR-5 it was 13 µM (inactive); in the assay on SF-268, 13.3 µM (inactive); with EKVX, 16.7 µM (inactive). Moreover, the GI50 was 13.3 µM (inactive) in the assay on LOX IMVI; 16 µM (inactive) in the assay with DU-145; 15.9 µM (inactive) in the assay with 786-0; 15.4 µM (inactive) in the assay with MCF7; 13.4 µM (inactive) in the assay on NCI-H226; 17.5 µM (inactive) in the assay with COLO 205. The GI50 with CCRF-CEM was 10.2 µM (inactive); in the assay with BT-549, 17.5 µM (inactive); in the assay with NCI-H23 it was 14.5 µM (inactive); in the assay on UACC-257 it was 13.7 µM (inactive); in the assay with T47D, 16.9 µM (inactive); with SK-OV-3, 15.4 µM (inactive). The GI50 in the assay on KM12 was 12.4 µM (inactive).

With `Cc1ccc(C(=O)c2[nH]c(NCc3ccccc3)c(C(=S)Nc3ccccc3)c2N)cc1`, the GI50 is 5.64 µM (inactive) with NCI-H460; 14.3 µM (inactive) with CAKI-1; 11.4 µM (inactive) in the assay with ACHN; 14 µM (inactive) in the assay with OVCAR-5; 12.9 µM (inactive) in the assay with SF-268; 13.6 µM (inactive) in the assay on EKVX. The GI50 in the assay on LOX IMVI was 2.01 µM (inactive); with DU-145, 13.8 µM (inactive); with 786-0, 5.9 µM (inactive); in the assay with MCF7 it was 2.88 µM (inactive); in the assay on NCI-H226, 11.5 µM (inactive); in the assay on COLO 205 it was 3.87 µM (inactive). Also, the GI50 is 5.16 µM (inactive) with CCRF-CEM; 7.94 µM (inactive) in the assay with BT-549; 13.3 µM (inactive) in the assay on NCI-H23; 5.75 µM (inactive) in the assay on UACC-257; 10.3 µM (inactive) in the assay on T47D; 2.77 µM (inactive) with SK-OV-3. In the assay with KM12, the GI50 was 2.28 µM (inactive).
